Measurements published in patent US3932633A, “Novel o-triazenobenzamides, in treating aggressive behavior” (Uniroyal Inc., priority 1974, dated 1976).
Counter-ions that a name gives are not always drawn. Like-named read-outs stand apart in the source and are kept apart here.

Legend:
[1] = tested on: aggression induced in rats by destruction of the septal area; test: Septal rat aggression; format: in vivo; settings: for ED50: Rattus norvegicus, ip
Excerpt: (§1) Two models of aggression are used in the primary screening for neuroleptics, (1) isolation-induced fighting in mice (IFM), and (2) aggression induced in rats by destruction of the septal area (septal rat). Compounds are first submitted, however, to the neuropharmacological profile, a standard procedure (see, e.g., Samuel Irwin, Science, 136, 123 [1962]) employed in screening a compound to determine its usefulness as a central nervous system active compound. Those agents which cause depression over a wide dose range are then submitted to the first anti-aggression screen, the isolation-induced fighting mouse assay.
(§2) The compound of Example 6 was compared with chlorpromazine and chlordiazepoxide for its anti-aggressive activity. Three models of experimentally-induced aggression in rodents were studied (R. D. Sofia, Life Science, 8: 705, 1969).

[2] = Neurotoxicity (rotating rod / rotorod), mice; settings: mouse, in vivo
Procedure: (§3) In the neurotoxicity test, the value (NTD50) is defined as the dose necessary to cause 50% of mice or rats trained to walk a rotating wooden rod (5 rpm) to fall at the time of peak effect, and is a measure of drug effects on motor function or central nervous system toxicity. The results set forth in Table III were obtained when the compound of Example 6 was tested against chlorpromazine and chlordiazepoxide.

[3] = tested on: dihydroxyphenylalanine-induced fighting behavior in mice; test: Dihydroxyphenylalanine (DOPA) fighting test; format: in vivo, mouse; settings: for excitation, salivation, jumping, and fighting with d1-DOPA: 200 mg/kg d1-DOPA, pargyline 80 mg/kg, Example 6 100 mg/kg, chlorpromazine 5 mg/kg, chlordiazepoxide 15 mg/kg
Procedure: It is well known that when monoamine oxidase inhibitors are administered prior to the administration of d1-DOPA, which is a noradrenaline precursor, convulsions or excitation occur. In this study, the MAO inhibitor pargyline (80 mg/kg) was given 1, 2 and 4 hours prior to administering 200 mg/kg of d1-DOPA. […] Thus, in this procedure, none of the agents tested appears to be a MAO inhibitor.

[4] = Neurotoxicity (rotating rod / rotorod), rats; settings: rat, in vivo, ip
Procedure: as §3

[5] = tested on: spontaneous locomotor activity in rats; test: Spontaneous locomotor activity; format: in vivo; settings: Rattus norvegicus, ip, 0.5 h, read-out: SD50 (dose causing 50% reduction from control activity)
[6] = tested on: maximal electroshock seizures in mice; test: Maximal electroshock seizures; format: in vivo, mouse; settings: I.P., mice; inactive at: Example 6 200 mg/kg, chlorpromazine 25 mg/kg
Procedure: Groups of ten mice each were injected i.p. with a vehicle and the compound of Example 6 and placed in individual Plexiglas squares. Thirty minutes after i.p. injection, each mouse was administered an electric shock transcorneally at 50mA intensity, 0.2 seconds duration (Swinyard, et al, J. Pharmacol. Exptl. Ther., 106: 319, 1952). The criterion for activity is protection against tonic extension of the hind limbs. The dose necessary to protect 50% of the mice (MES50) was determined.

5 day lethality, rats = settings: rat, in vivo, ip
Excerpt: (§4) Table VIII gives the results of 5 day lethality studies following single injections of drug. All values presented represent tests conducted when animals were housed 10 per cage. The compound of Example 6 was compared with chlorpromazine and chlordiazepoxide. In these and all the preceding calculations, the method of Litchfield and Wilcoxon (J. Pharmacol. Exptl. Ther., 96: 99, 1949) was used to estimate effective (ED50) or lethal (LD50) dose.

[7] = tested on: electroshock-induced fighting in mice; test: Electroshock-induced fighting in mice; format: in vivo, mouse; settings: for ED50: Mus musculus, ip, read-out: ED50 (95% Confidence Limits), Electroshock-Induced Fighting in Mice
Excerpt: as §2

[8] = tested on: isolation-induced fighting in mice; test: Isolated fighting mouse (IFM) test / isolated mouse aggression; format: in vivo; settings: for ED50 / responders at 30 mg/kg: Mus musculus, ip; for ED50 / NTD50/ED50, Isolated Mouse Aggression: i.p. administration; for responders at 30 mg/kg: 30 mg/kg intraperitoneally, at least 40% protected = active; for protected test animals in the IFM test: dose not restated in this sentence
Procedure: *IFM - Isolated fighting mouse test at a dose of 30 mg/kg
intraperitoneally; those compounds which protected at least 40% of the
as §1, §2

[9] = tested on: d-amphetamine aggregation-induced lethality; test: d-Amphetamine aggregation; format: in vivo; settings: inactive at: Example 6 200 mg/kg, chlordiazepoxide 50 mg/kg
Procedure: Protection from d-amphetamine aggregation-induced lethality is usually afforded by alpha-adrenergic-blocking agents such as chlorpromazine, phenoxybenzamine, etc. Percent protection was determined and an ED50 value was calculated.

5 day lethality, mice = settings: mouse, in vivo
Excerpt: as §4

[10] = tested on: pentylenetetrazol seizures in mice; test: Pentylenetetrazol seizures; format: in vivo, mouse; settings: I.P., mice; inactive at: Example 6 200 mg/kg, chlorpromazine 100 mg/kg
Procedure: In this test (modification of the method introduced by Everett and Richard, J. Pharmacol. Exptl. Ther., 81: 402, 1944), groups of ten mice each are pretreated i.p. with vehicle and various doses of the compound of Example 6 and placed in Plexiglas squares. Thirty minutes later, all mice are injected subcutaneously (s.c.) with pentylenetetrazol at 125 mg/kg and observed immediately thereafter for convulsions and death for a period of 1 hour.

[11] = tested on: mice trained to walk a rotating wooden rod; test: Neurotoxicity (rotating rod / rotorod), mice; settings: mouse, in vivo
Procedure: as §3

[12] = tested on: tetrabenazine-induced ptosis in mice; test: Antagonism of tetrabenazine-induced ptosis; format: in vivo, mouse; settings: 200 mg/kg, 30 minutes before tetrabenazine 32 mg/kg intraperitoneally
Procedure: Groups of mice were given 32 mg/kg of tetrabenazine intraperitoneally 30 minutes after an injection of the compound of Example 6 (200 mg/kg). The degree of ptosis (eyelid drooping or closure) was then determined exactly 30 minutes after tetrabenazine administration.

[13] = tested on: hissing response elicited by hypothalamic stimulation in cats; test: Evoked hypothalamic rage response - cats; format: in vivo, cat; settings: 25 mg/kg orally for three days
Excerpt: The effect of the compound of Example 6 on the hissing response elicited by hypothalamic stimulation in cats was studied in an effort to determine if it had properties similar to that of chlordiazepoxide and other anti-anxiety-like agents. […] Cats with chronically implanted electrodes, stereotaxically placed in the perifornical region of the hypothalamus, were used in this study. Stimulation was accomplished in the unanesthetized, freely moving animal, and the threshold for the hissing response was determined with the following stimulus parameters: square wave stimulation of 150 Hz with a duration of 0.5 msec and voltage ranging from 5.4 to 30. The compound of Example 6 was administered orally in capsule form. Following administration, the stimulation threshold for the hiss response was determined at 1, 2, 4, 6 and 24 hours. If an effect was observed, the stimulation was carried out daily until the thresholds returned to control values. The compound of Example 6 was administered orally at a dose of 25 mg/kg for three days. […] It can be concluded that the compound of Example 6 has no effect on hypothalamic excitability in cats and in this respect differs markedly from chlordiazepoxide.

mice = test: Neuropharmacological profile; format: in vivo, mouse
Excerpt: as §1
The compound of Example 6 was studied in the neuropharmacological profile, which, as indicated above, is a standardized multi-dimensional observation technique used on mice to grade symptomatology and acute toxicity relative to dosage.

[14] = tested on: isolation-induced fighting in mice; test: Isolated fighting mouse (IFM) test / isolated mouse aggression; format: in vivo; settings: ip, 60 mg/kg intraperitoneally, read-out: IFM % protected
[15] = tested on: tetrabenazine-induced ptosis in mice; settings: stated as known comparison; cited from earlier work
[16] = i.p. administration, read-out: ED50 (95% Confidence Limits), Septal Rat Aggression
[17] = ip, I.P., mice, 95% confidence limits, read-out: NTD50
[18] = read-out: ED50 (95% Confidence Limits), Isolated Mouse Aggression

Row | Compound | ED50 [1, 16] [mg/kg] | NTD50/ED50, Septal Rat Aggression ([1]; i.p. administration) | TD50 [2, 17] [mg/kg] | excitation, salivation, jumping, and fighting with d1-DOPA [3] | MES50 [6] | NTD50/ED50, Electroshock-Induced Fighting in Mice ([7]; i.p. administration) | ED50 [8, 18] [mg/kg] | NTD50/ED50, Isolated Mouse Aggression [8] | MET50 [10] | TD50 [2] [mg/kg] | depression [11] | responders at 30 mg/kg [8] [%] | protected test animals in the IFM test [8] [%] | reversal of tetrabenazine-induced ptosis by anti-depressants [15] | also measured
1 | CN(C)CCCN1c2ccccc2Sc2ccc(Cl)cc21 [Chlorpromazine, chlorpromazine] | 10.7 | 0.5 | 0.7 | these symptoms were not observed | Inactive | 0.1 | 2.8 | 0.3 | Inactive | – | – | – | – | – | TD50 ([4]; I.P., rats, 95% confidence limits, read-out: NTD50): 5.3 mg/kg; ED50 [5]: 1.7 mg/kg; LD50 at 120 h (5 day lethality, rats; Rats, I.P., 5 day, 10 per cage, read-out: LD50 (95% Confidence Limits)): 138 mg/kg; ED50 [7]: 5.5 mg/kg; ED50 [9]: 1.2 mg/kg; LD50 at 120 h (5 day lethality, mice; ip, Mice, I.P., 5 day, 10 per cage, read-out: LD50 (95% Confidence Limits)): 136 mg/kg; LD50 at 120 h (5 day lethality, mice; po, Mice, P.O., 5 day, 10 per cage, read-out: LD50 (95% Confidence Limits)): 280 mg/kg
2 | Cc1ccc(NN=Nc2ccccc2C(N)=O)cc1Cl [Example 3, 2-[3-(3-chloro-4-methylphenyl)-1(or 2)-triazeno]-benzamide] | – | – | – | – | – | – | – | – | – | > 100 | do not cause depression | 100 | 100 | – | ED50 ([8]; read-out: ED50 (IFM)): 9.1 mg/kg
3 | Cc1nc(NN=Nc2ccccc2C(N)=O)sc1C(=O)NCc1ccccc1 [Example 6, 2-[3-(4-methyl-5-(N-benzyl-carbamoyl)-2-thiazolyl)-2(or 1)-triazeno]-benzamide] | ~4.5 | 111.0 | > 1280 | these symptoms were not observed | Inactive | 13.3 | 1.8 | 710 | Inactive | – | – | 100 | – | – | selectivity in inhibition of septal rat aggression versus chlordiazepoxide ([1]; septal rat): 185 times; potentiation of dihydroxyphenylalanine-induced fighting behavior in mice ([3]; mice): failed to (1) potentiate dihydroxyphenylalanine-induced fighting behavior in mice; TD50 [4]: ~500 mg/kg; ED50 ([5]; I.P., rats, 30 minutes after administration, 30 minute activity count): ~500 mg/kg; reversal of tetrabenazine-induced ptosis [12]: did not reverse tetrabenazine-induced ptosis; decrease of the threshold for the rage response [13]: not observed during the experiments; delay from stimulus to response [13]: not changed; rage response, intensity or character [13]: not changed in intensity or character; effect on hypothalamic stimulation (threshold) ([13]; 25 mg/kg): no effect on hypothalamic stimulation; LD50 at 120 h (5 day lethality, rats): > 1400 mg/kg; ED50 ([7]; i.p. administration): 96 mg/kg; deaths in neuropharmacological profile (mice; 30, 100, 300 mg/kg, mice): No deaths occurred; central nervous system depressant action, profile result (mice; mouse, in vivo): very weak central nervous system depressant; ED50, d-amphetamine aggregation [9]: Inactive; LD50 at 120 h (5 day lethality, mice; ip): > 1280 mg/kg; LD50 at 120 h (5 day lethality, mice; po): > 800 mg/kg
4 | Cc1nc(NN=Nc2ccccc2C(=O)NCCCN(C)C)sc1C(=O)NCc1ccccc1 [Example 7, N-(3-dimethylaminopropyl)-2-[3-(4-methyl-5-(N-benzylcarbamoyl)-2-thiazolyl)-2(or 1)-triazeno]-benzamide (2:1) sulfate salt] | – | – | – | – | – | – | – | – | – | > 100 | do not cause depression | – | 100 | – | septal rat aggression, protection ([1]; 6.25 mg/kg i.p.): 100%; septal rat aggression, protection ([1]; 12.5 mg/kg i.p.): 100%; ED50 ([1]; indicated by 100% protection at 6.25 mg/kg, read-out: ED50, septal rat aggression): < 6.25 mg/kg; responders at 60 mg/kg [14]: 100%
5 | CN(C)CCC=C1c2ccccc2CCc2ccccc21 [amitriptyline] | – | – | – | – | – | – | – | – | – | – | – | – | – | reverse tetrabenazine-induced ptosis | –
6 | CNCCCN1c2ccccc2CCc2ccccc21 [desipramine] | – | – | – | – | – | – | – | – | – | – | – | – | – | reverse tetrabenazine-induced ptosis | –
